Legend:
ALPK1 [1] = test: IL8 secretion in HEK293 cells (IL8 ELISA) as indicator of ALPK1 activation; settings: added to the FBS-containing medium, HEK293 cells, IL8 secretion
Experimental: (§1) We pre-mixed H1b-ADP with phosphatase inhibitor sodium orthovanadate (Na3VO4) before incubation with FBS.
(§2) In these experiments, serial dilutions of the compounds were added to the tissue culture media of HEK293 cells with (FIG. 27B, FIG. 28B, FIG. 29B) or without (FIG. 26, FIG. 27A, FIG. 28A, FIG. 29A) 10% FBS, as indicated in the figures. After 4 hours, the cell supernatant was collected and analyzed for IL8 concentration using IL8 ELISA (BD) as an indicator of ALPK1 activation.

[2] = test system: phosphatase activity in the serum; test: Incubation of H1b-ADP with FBS, product analysed by LC-MS; type: in vitro ADME, bovine; settings: pre-treatment of H1b-ADP before serum incubation
Excerpt: FBS contains 110-352 U/ml alkaline phosphatase.

ALPK1 [3] = target: T1, ALPK1 (Homo sapiens, UniProt Q96QP1); test: IL8 secretion in HEK293 cells (IL8 ELISA) as indicator of ALPK1 activation; settings: without FBS, 4 hours
Experimental: as §1, §2

[4] = test system: mouse liver and lung tissue; test: Chemokine and cytokine expression in liver and lung tissue after subcutaneous injection (qPCR); type: in vivo; settings: C57 mice, three hours
Experimental: In additional experiments, Compound 1 was injected subcutaneously into 7 week old C57 mice at concentrations of 2, 10, 50, and 200 nmol. Tissue was harvested three hours later and RNA extracted. Quantitative PCR (qPCR) was performed to determine the tissue expression levels Cxcl1, Cxcl11, IL1b, and IL6 in mouse liver (FIG. 32A) and lung (FIG. 32B) tissue. Additional chemokines and cytokines were assayed in the lung tissue.

CT26 cells = test: CT26 tumor xenograft model, tumor volume; type: in vivo, BALB/c mice
Experimental: We used a CT26 tumor xenograft model to test the anti-cancer activity of H1b-ADP. Tumor cells (2×10^5 per 100 uL CT26 cells) were inoculated subcutaneously into the right flank of BALB/c mice. At day 6, mice whose tumors had reached 3-5 mm in diameter were randomized and grouped into three groups (n=8 each group), control, HMP-1bP (580 ug), and H1b-ADP (1.2 ug). Injections were performed using a total volume of 20 uL at days 6, 8, 10, 12, and 14 post inoculation. Tumor volumes were calculated every 2 days from caliper measurements of tumor dimension using the formula (L×W^2)/2, where L is the longer measurement.
To test whether H1b-ADP could augment an anti-tumor response by a checkpoint inhibitor, we tested the effects of co-administration with an anti-PD1 antibody. Tumor cells (2×10^5 per 100 μL CT26 cells) were inoculated subcutaneously into the left and right flanks of BALB/c mice. At day 7, mice whose tumors had reached 5 mm in diameter were randomized and grouped (n=8 each group) into the following four groups: anti-PD1 antibody; rat IgG; H1b-ADP+rat IgG; H1b-ADP+anti-PD1 antibody. We utilized RMP1-14 as the anti-PD1 antibody (10 mg/kg) and a rat IgG 2a (2A3) as the control IgG. Each of the anti-PD-1 antibody and the control IgG was administered intraperitoneally in a 200 μL volume on days 6, 10, 12, and 17 post-inoculation. H1b-ADP (6.2 μg) was intratumorally injected in a 20 μL volume at day 6, 8, 10, 12, and 15. Tumor volumes were calculated every 2 days from caliper measurements of tumor dimensions using the formula (L×W^2)/2, where L is the longer measurement. The results are shown in FIG. 13A for injected tumors and FIG. 13B for distant tumors. […]
The experiment was carried out as combo experiments of anti-PD1 except for the following variations. At day 6, mice whose tumors had reached 5 mm in diameter were randomized and grouped into the following four groups: c-di-AM(PS)2; PBS; H1b-ADP; H1b-ADP+c-di-AM(PS)2. We utilized c-di-AM(PS)2 as the STING agonist. Each of the c-di-AM(PS)2 (1 μg) and H1b-ADP (6.2 μg) was administered intratumorally in a 20 μL volume on days 6, 7, and 9 post-inoculation.
The experiment was carried out as combo experiments of anti-PD-1 except for the following variations. At day 6, mice whose tumors had reached 5 mm in diameter were randomized and grouped into the following four groups: anti-CD4 antibody (GK1.5 clone, BE0003-1, BioXcell); rat IgG; H1b-ADP+rat IgG; H1b-ADP+anti-CD4 antibody. Each of the anti-CD4 antibody (200 μg) and the control IgG (200 μg) was administered intraperitoneally in a 200 μL volume on days 3, 4, 8 post-inoculation. H1b-ADP (6.2 μg) was administered intratumorally in a 20 μL volume on days 6, 8, 10, 12, 14 post-inoculation.
The experiment was carried out as combo experiments of anti-PD-1 except for the following variations. At day 6, mice whose tumors had reached 5 mm in diameter were randomized and grouped into the following four groups: Resquimod; PBS; H1b-ADP; H1b-ADP+Resquimod. Resquimod (10 μg) and H1b-ADP (6.2 μg) were administered intratumorally in a 20 μL volume on days 6, 8, 11 post-inoculation.
We used a CT26 tumor xenograft model to test the anti-cancer activity of H1b-ADP derivative Compounds 1 and 2. Tumor cells (2×10^5 per 100 uL CT26 cells) were inoculated subcutaneously into the right flank of BALB/c mice. At day 7, mice whose tumors had reached 3-5 mm in diameter were randomized and grouped into three groups (n=9 each group), control, Compound 1 (50 nmol), and Compound 2 (50 nmol). Injections were performed using a total volume of 20 uL at days 7, 9, and 11 post inoculation. Tumor volumes were calculated every 2 days from caliper measurements of tumor dimension using the formula (L×W^2)/2, where L is the longer measurement.

ALPK1 [5] = target: T1, ALPK1; test: In vitro kinase assay of ALPK1-dependent TIFA phosphorylation; type: biochemical; settings: for phosphorylation of the ALPK1 substrate TIFA: FIG. 7, chemically-synthesized compounds
Experimental: We performed an in vitro kinase assay with H1b-ADP and H1b-ADP-6L along with ALPK1 protein (2 nM), and TIFA protein (1.6 uM) in kinase buffer containing 50 uM ATP. TIFA phosphorylation was analyzed by denaturing gel electrophoresis followed by western blotting using an anti-phosphothreonine antibody. H1b-ADP or H1b-ADP-6L was added at 2 nM, 0.4 nM, 80 pM, 16 pM, and 3 pM.
To test this, we performed an in vitro kinase reaction for ALPK1-dependent TIFA phosphorylation in the presence of either HBP or HIdA purified from E. coli containing inactivated HIdE, or in the presence of HBP and HIdA purified from the same HIdE wild-type E. coli used in the previous experiments. Phosphorylated TIFA (three concentrations, 1%, 0.2% and […]) was detected as described above by denaturing gel electrophoresis followed by Western analysis.

ALPK1 [6] = target: T1, ALPK1; test: Cell-free kinase assay of ALPK1 autophosphorylation (Western, anti-phospho-threonine); type: biochemical; settings: ALPK1 2 nM, ATP; H1b-ADP 10, 1, 0.2 nM; HBP and HMP-1bP 1, 10, 100 nM
Experimental: ALPK1 activation results in its autophosphorylation. Accordingly, we next asked whether the binding of H1b-ADP to ALPK1 was sufficient to induce ALPK1 autophosphorylation. Phosphorylation assays were performed according to standard protocols. Briefly, ALPK1 was incubated (2 nM, 25° C., 1 h) in assay buffer (20 al, 25 mM HEPES pH 7.5, 50 mM KCl, 0.1 mM EDTA, 0.1 mM EGTA, 2 mM DTT, 1.5 mM CaCl2, 10 mM MgCl2) with ATP and chemically synthesized HBP, HMP-1bP, or H1b-ADP followed by denaturing gel electrophoresis and Western analysis with an anti-phospho-threonine antibody (CST) to detect autophosphorylation of ALPK1. […] The range of concentrations of HBP and HMP-1bP used in this assay (1 nM, 10 nM, 100 nM) was 10-fold higher than that used for H1b-ADP.

ALPK1 [7] = target: T1, ALPK1; test: Thermal shift assay (SYPRO Orange) for binding to ALPK1; settings: ALPK1 7 uM; 1 uM, 5 uM, 25 uM, or 125 uM
Excerpt: The thermal shift assay is widely used to determine the binding of a molecule to a protein of interest. The assay is based on the increase in thermal energy required for denaturation of a protein where another molecule is bound to the protein. SYPRO Orange is a fluorescent compound used in the detection of thermal shift. SYPRO Orange binds to hydrophobic surfaces of the protein, and water strongly quenches its fluorescence. When the protein unfolds, the exposed hydrophobic surfaces bind the dye, resulting in an increase in fluorescence. When another molecule is bound to the protein, an increase in the temperature required for unfolding of the protein is observed.
This assay system was used to determine whether or not chemically synthesized HBP, HMP-1bP, and H1b-ADP directly bind to ALPK1. […] Only H1b-ADP induced a shift of more than 1 degree, at each of the three highest concentrations tested, 5 uM, 25 uM, and 125 uM.

ALPK1 [8] = target: T1, ALPK1; test: IL-8 and TNFα mRNA expression in HEK293 cells with control or ALPK1-directed siRNA; type: cell-based; set-up: ALPK1-directed small interfering RNA (siRNA) to silence ALPK1 expression in HEK293 cells; endogenous in cells; host or cells: HEK293; settings: for IL-8 mRNA expression / TNFα mRNA expression: 4 hours, control vs ALPK1-directed siRNA; for concentration required to induce IL-8 and TNFα mRNA expression: FIG. 5
Experimental: To test whether HBP, HMP-1bP, and H1b-ADP were able to induce cytokine expression in an ALPK1 dependent manner, we used an ALPK1-directed small interfering RNA (siRNA) to silence ALPK1 expression in HEK293 cells. Cells were plated (1×10^4 cells/well) into 96-well plates and transfected with either control siRNA or ALPK1-directed siRNA according to the manufacturer's protocols (Lipofectamine™ RNAiMax™, Invitrogen 13778075). Following 2 days of culture, either (1) HBP (500 uM, 100 uM, 20 uM, FIG. 2A-2B) (2) HMP-1bP (500 uM, 100 uM, FIG. 3A-3B), (3) H1b-ADP (100 nM, 20 nM, 4 nM, 0.8 nM, FIG. 4A-4B) was added to culture medium and cells were harvested 4 hours later.

[9] = Example 18: 50 nmol, injections days 7, 9, 11

T1 sequence (Q96QP1 whole entry): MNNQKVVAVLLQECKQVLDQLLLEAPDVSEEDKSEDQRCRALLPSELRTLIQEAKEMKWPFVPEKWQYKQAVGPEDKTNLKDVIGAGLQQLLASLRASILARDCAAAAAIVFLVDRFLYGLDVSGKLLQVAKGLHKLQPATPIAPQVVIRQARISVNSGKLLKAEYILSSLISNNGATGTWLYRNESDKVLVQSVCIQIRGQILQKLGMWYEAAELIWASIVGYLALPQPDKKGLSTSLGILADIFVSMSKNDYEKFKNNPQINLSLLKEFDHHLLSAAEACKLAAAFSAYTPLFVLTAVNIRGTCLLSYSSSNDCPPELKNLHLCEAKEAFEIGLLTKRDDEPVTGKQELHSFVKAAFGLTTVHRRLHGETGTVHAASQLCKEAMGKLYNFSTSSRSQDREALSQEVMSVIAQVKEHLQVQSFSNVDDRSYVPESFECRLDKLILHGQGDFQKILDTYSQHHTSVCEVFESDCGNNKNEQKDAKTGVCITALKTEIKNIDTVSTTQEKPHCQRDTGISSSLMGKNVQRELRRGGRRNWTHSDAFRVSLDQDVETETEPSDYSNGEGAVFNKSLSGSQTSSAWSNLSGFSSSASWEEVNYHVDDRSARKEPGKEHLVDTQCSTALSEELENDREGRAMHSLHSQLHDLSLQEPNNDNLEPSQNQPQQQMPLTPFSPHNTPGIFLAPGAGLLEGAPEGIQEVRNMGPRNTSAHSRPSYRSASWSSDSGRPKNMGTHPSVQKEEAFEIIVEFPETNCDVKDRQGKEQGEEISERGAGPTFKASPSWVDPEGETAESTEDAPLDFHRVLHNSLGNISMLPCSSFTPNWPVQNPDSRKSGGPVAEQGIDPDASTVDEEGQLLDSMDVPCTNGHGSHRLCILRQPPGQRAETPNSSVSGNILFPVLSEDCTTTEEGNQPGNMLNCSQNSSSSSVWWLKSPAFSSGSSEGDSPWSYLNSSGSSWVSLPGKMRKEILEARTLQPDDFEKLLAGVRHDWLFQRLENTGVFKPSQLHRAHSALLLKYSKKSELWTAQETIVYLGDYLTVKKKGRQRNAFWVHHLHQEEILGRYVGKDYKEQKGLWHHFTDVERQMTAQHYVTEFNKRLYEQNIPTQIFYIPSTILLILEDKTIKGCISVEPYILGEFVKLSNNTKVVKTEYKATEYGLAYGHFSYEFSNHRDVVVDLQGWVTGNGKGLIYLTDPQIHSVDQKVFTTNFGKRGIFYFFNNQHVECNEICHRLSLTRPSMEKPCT

Row | autophosphorylation of ALPK1 (ALPK1 [6]) | phosphorylation of the ALPK1 substrate TIFA (ALPK1 [5]) | IL-8 mRNA expression (ALPK1 [8]) | TNFα mRNA expression (ALPK1 [8]) | concentration required to induce IL-8 and TNFα mRNA expression (ALPK1 [8]) | SMILES | IL8 secretion in HEK293 cells (ALPK1 [3]) | tumor growth (CT26 cells; [9]) | thermal shift / direct binding to ALPK1 (ALPK1 [7]) | also measured
1 | – | – | – | – | – | Nc1ncnc2c1ncn2[C@@H]1O[C@H](COP(=O)(O)O)[C@@H](O)[C@H]1O [AMP] | – | – | – | restoration of H1b-ADP's activity in the cell based assay (ALPK1 [1]): could restore H1b-ADP's activity; phosphatase activity in serum [2]: inhibited phosphatase activity and the inhibition was AMP dose-dependent
2 | – | – | – | – | – | CC(=O)OC[C@@H](OC(C)=O)[C@H]1O[C@@H](OP(=O)(O)OP(=O)(O)OC[C@H]2O[C@@H](n3cnc4c(N)ncnc43)[C@H](O)[C@@H]2F)[C@@H](OC(C)=O)[C@@H](OC(C)=O)[C@@H]1OC(C)=O [Compound 1, (2S,3S,4S,5R,6R)-2-(((((((2R,3S,4S,5R)-5-(6-amino-9H-purin-9-yl)-3-fluoro-4-hydroxytetrahydrofuran-2-yl)methoxy)(hydroxy)phosphoryl)oxy)(hydroxy)phosphoryl)oxy)-6-((R)-1,2-diacetoxyethyl)tetrahydro-2H-pyran-3,4,5-triyl triacetate] | activate IL8 secretion | reduced tumor growth | – | dose activating an inflammatory response in lung tissue [4]: 200 nmol; dose activating an inflammatory response in liver tissue ([4]; 2 nmole = 1.2 μg): ≤ 2 nmol
3 | – | – | – | – | – | Nc1ncnc2c1ncn2[C@@H]1O[C@H](COP(=O)(O)OP(=O)(O)O[C@@H]2OC([C@H](O)CO)[C@@H](O)C(O)C2O)C(F)C1O (stereo partly drawn) [Compound 2, Adenosine-3′-fluoro-5′-(D-glycero-β-D-mannoheptopyranosyl) diphosphate] | activate IL8 secretion | reduced tumor growth | – | –
4 | – | – | – | – | – | Nc1ncnc2c1ncn2[C@@H]1O[C@H](COP(=O)(O)OP(=O)(O)O[C@@H]2O[C@H]([C@@H](O)CO)[C@@H](O)[C@H](O)[C@@H]2O)[C@@H](O)[C@H]1O [Compound H1b-ADP-6L, L-glycero-D-manno-heptose-1β-ADP] | – | – | – | TIFA phosphorylation (ALPK1-dependent signaling) (ALPK1 [5]; ALPK1 2 nM, TIFA 1.6 uM, 50 uM ATP, 2 nM to 3 pM): activated ALPK1-dependent signaling in a manner similar to H1b-ADP
5 | not | only in the presence of H1b-ADP | increased in an ALPK1-dependent manner | increased in an ALPK1-dependent manner | 100 µM | O=P(O)(O)OC[C@@H](O)[C@H]1O[C@@H](OP(=O)(O)O)[C@@H](O)[C@@H](O)[C@@H]1O [HBP, D-glycero-β-D-manno-heptose 1,7-bisphosphate] | – | – | Neither HBP nor HMP-1bP were able to induce a thermal shift | anti-tumor activity in a murine tumor model (CT26 cells; summary statement): not
6 | not | only in the presence of H1b-ADP | increased in an ALPK1-dependent manner | increased in an ALPK1-dependent manner | 100 µM | O=P(O)(O)O[C@@H]1O[C@H]([C@H](O)CO)[C@@H](O)[C@H](O)[C@@H]1O [HMP-1bP, D-glycero-β-D-manno-heptose-1-phosphate] | – | – | Neither HBP nor HMP-1bP were able to induce a thermal shift | tumor growth (CT26 cells; intratumoral, days 6, 8, 10, 12, 14, HMP-1bP 580 ug, H1b-ADP 1.2 ug): not
